pIC50: −log10 of the molar value.
Legend:
[1] = target: Btk (Homo sapiens, UniProt Q06187); assay: Btk kinase activity assay; type: biochemical; settings: under the test conditions employed; read-out: IC50 toward kinase Btk
[2] = target: T1, Fms (Homo sapiens, UniProt P07333); assay: Fms biochemical assay (AlphaScreen or 33P-ATP); settings: under the test conditions employed; read-out: IC50 toward kinase Fms
T1 construct: purchased Upstate Biotech 14-551
From the text: Each sample was at 5% DMSO.

[3] = target: c-Raf-1 (Homo sapiens, UniProt P04049); assay: c-Raf-1 kinase activity assay; type: biochemical; settings: under the test conditions employed; read-out: IC50 toward kinase c-Raf-1
[4] = target: B-Raf (Homo sapiens, UniProt P15056); assay: B-Raf kinase activity assay; type: biochemical; settings: under the test conditions employed; read-out: IC50 toward kinase B-Raf
[5] = target: Fak (Homo sapiens, UniProt Q05397); assay: Fak kinase activity assay; type: biochemical; settings: under the test conditions employed; read-out: IC50 toward kinase Fak
[6] = target: B-Raf V600E (Homo sapiens, UniProt P15056, V600E); assay: B-Raf V600E kinase activity assay; type: biochemical; settings: under the test conditions employed; read-out: IC50 toward kinase B-Raf V600E
[7] = target: T2, Kit (Homo sapiens, UniProt P10721); assay: c-kit biochemical assay (AlphaScreen or 33P-ATP); settings: under the test conditions employed; read-out: IC50 toward kinase Kit
T2 construct: P1332.N6 BI PTP KIT M552-K948-X COD; made in house; host or cells: E. coli BL21(DE3)RIL, co-expressed with PTP1B
Outline: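 Kinase activity read by AlphaScreen or 33P-ATP incorporation, with c-kit enzyme at 1 ng per sample. The enzyme was either commercial or a recombinant human kit construct made from a gene-synthesized coding sequence.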

[8] = target: FGFR (Homo sapiens, UniProt P11362); assay: FGFR kinase activity assay; type: biochemical; settings: under the test conditions employed; read-out: IC50 toward kinase FGFR
[9] = target: Src (Homo sapiens, UniProt P12931); assay: Src kinase activity assay; type: biochemical; settings: under the test conditions employed; read-out: IC50 toward kinase Src
[10] = target: T3, TrkA (Homo sapiens, UniProt P04629); assay: TrkA biochemical assay (AlphaScreen); settings: under the test conditions employed; read-out: IC50 toward kinase TrkA
T3 construct: purchased Upstate Biotech 14-571
Procedure: Compounds tested were dissolved in DMSO (1 μL) and added to a white 384-well plate (Costar #3705). […] Each sample was at 5% DMSO. The plate was then incubated for 40 minutes at room temperature.

[11] = target: Flt1 (Homo sapiens, UniProt P17948); assay: Flt1 kinase activity assay; type: biochemical; settings: under the test conditions employed; read-out: IC50 toward kinase Flt1
[12] = target: Kdr (Homo sapiens, UniProt P35968); assay: Kdr kinase activity assay; type: biochemical; settings: under the test conditions employed; read-out: IC50 toward kinase Kdr
[13] = target: HGK (Homo sapiens, UniProt O95819); assay: HGK (MAP4K4) biochemical assay (AlphaScreen); settings: under the test conditions employed; read-out: IC50 toward kinase HGK
Outline: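 AlphaScreen kinase assay with 0.5 ng MAP4K4 per sample and 10 nM biotin-ERM substrate, reacted 40 min at room temperature. Stopped with EDTA buffer containing phospho-ERM antibody (1:1000) plus donor and protein A acceptor beads (1 μg/ml final); signal tracks substrate phosphorylation.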

[14] = target: B-Raf V600E/T529I (Homo sapiens, UniProt P15056, T529I/V600E); assay: B-Raf V600E/T529I kinase activity assay; type: biochemical; settings: under the test conditions employed; read-out: IC50 toward kinase B-Raf V600E/T529I

HGK, sequence (O95819 whole entry): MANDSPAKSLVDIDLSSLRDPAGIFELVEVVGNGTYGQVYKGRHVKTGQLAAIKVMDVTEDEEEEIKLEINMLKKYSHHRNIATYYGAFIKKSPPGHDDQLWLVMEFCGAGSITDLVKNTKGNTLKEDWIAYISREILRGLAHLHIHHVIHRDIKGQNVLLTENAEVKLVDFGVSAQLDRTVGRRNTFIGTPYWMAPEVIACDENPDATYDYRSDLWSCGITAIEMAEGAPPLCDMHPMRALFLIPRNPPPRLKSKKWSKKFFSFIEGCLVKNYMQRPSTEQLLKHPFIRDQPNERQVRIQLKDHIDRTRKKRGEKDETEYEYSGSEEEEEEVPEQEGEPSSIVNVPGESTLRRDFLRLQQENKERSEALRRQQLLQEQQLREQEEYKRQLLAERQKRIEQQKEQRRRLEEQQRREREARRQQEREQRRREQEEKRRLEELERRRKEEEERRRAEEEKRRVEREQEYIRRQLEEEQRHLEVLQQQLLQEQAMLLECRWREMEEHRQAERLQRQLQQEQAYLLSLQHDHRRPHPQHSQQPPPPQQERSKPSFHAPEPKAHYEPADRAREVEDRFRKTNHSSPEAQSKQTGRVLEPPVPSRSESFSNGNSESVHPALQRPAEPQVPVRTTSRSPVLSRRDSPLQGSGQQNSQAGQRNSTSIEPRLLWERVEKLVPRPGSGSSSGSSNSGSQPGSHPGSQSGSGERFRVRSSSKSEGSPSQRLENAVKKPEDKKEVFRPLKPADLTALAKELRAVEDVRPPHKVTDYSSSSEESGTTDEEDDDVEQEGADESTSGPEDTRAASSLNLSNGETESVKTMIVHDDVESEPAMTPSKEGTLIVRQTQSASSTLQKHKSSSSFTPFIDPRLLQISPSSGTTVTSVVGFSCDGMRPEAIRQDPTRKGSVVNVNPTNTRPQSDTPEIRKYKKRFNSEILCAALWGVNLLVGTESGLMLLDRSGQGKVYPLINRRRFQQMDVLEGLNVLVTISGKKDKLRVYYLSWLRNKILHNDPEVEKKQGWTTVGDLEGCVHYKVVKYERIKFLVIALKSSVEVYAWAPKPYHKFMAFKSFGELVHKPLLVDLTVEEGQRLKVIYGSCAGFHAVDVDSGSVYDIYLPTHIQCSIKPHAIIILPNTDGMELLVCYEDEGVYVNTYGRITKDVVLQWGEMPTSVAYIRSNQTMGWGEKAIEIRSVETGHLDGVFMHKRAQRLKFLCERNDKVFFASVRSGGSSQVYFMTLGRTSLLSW
FGFR, sequence (P11362 22-822): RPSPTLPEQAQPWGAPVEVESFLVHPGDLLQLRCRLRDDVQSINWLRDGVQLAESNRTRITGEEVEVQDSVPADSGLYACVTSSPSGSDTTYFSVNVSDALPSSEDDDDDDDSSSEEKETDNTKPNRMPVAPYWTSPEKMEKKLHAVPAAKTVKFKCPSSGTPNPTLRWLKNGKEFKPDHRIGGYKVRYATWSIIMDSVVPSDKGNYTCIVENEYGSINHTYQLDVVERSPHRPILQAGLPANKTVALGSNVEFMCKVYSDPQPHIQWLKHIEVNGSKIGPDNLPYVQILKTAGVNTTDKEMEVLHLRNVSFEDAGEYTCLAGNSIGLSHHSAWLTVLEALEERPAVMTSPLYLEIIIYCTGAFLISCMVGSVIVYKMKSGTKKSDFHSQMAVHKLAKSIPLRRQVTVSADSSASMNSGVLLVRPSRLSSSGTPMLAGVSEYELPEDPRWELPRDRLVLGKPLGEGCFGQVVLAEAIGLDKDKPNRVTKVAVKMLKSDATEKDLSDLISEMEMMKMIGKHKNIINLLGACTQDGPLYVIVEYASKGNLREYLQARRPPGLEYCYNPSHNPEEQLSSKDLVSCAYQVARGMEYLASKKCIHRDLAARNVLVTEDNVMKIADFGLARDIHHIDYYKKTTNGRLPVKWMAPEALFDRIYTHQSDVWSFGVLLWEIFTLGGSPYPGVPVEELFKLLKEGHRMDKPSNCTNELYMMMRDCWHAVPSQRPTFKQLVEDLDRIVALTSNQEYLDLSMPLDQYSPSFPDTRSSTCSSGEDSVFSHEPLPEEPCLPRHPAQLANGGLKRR
T3 sequence (P04629 33-796): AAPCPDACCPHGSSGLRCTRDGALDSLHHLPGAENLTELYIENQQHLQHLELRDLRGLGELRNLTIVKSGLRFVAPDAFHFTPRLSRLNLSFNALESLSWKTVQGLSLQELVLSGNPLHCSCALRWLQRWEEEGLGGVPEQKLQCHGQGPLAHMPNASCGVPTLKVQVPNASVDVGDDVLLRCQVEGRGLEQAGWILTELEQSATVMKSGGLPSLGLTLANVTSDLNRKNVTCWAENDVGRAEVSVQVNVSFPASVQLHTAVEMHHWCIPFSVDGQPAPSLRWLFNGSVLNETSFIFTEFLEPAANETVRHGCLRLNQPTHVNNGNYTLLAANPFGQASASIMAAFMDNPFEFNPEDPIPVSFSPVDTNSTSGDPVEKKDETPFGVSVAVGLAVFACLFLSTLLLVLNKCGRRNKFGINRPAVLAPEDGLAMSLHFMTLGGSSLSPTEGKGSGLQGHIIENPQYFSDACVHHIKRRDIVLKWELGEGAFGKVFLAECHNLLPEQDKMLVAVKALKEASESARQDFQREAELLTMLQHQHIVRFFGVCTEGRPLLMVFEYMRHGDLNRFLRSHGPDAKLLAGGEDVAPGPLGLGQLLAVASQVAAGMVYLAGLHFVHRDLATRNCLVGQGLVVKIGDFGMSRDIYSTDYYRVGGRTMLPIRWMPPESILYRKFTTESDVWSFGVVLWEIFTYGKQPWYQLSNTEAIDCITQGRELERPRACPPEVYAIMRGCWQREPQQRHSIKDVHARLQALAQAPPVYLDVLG
Src, sequence (P12931 whole entry): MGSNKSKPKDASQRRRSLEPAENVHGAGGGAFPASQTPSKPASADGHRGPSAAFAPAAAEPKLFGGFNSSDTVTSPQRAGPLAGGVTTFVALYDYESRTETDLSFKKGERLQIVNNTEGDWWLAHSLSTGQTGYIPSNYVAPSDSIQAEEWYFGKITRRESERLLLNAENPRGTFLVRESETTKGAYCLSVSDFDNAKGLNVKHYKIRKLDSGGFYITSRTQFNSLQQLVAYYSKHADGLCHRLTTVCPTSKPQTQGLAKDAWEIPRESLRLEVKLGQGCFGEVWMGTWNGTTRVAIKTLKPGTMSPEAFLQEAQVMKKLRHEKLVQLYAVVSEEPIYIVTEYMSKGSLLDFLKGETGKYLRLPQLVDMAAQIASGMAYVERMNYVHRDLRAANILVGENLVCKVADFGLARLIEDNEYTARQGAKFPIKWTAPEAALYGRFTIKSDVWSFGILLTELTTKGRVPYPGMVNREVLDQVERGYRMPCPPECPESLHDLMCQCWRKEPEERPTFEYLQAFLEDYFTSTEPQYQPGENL
Kdr, sequence (P35968 20-1356): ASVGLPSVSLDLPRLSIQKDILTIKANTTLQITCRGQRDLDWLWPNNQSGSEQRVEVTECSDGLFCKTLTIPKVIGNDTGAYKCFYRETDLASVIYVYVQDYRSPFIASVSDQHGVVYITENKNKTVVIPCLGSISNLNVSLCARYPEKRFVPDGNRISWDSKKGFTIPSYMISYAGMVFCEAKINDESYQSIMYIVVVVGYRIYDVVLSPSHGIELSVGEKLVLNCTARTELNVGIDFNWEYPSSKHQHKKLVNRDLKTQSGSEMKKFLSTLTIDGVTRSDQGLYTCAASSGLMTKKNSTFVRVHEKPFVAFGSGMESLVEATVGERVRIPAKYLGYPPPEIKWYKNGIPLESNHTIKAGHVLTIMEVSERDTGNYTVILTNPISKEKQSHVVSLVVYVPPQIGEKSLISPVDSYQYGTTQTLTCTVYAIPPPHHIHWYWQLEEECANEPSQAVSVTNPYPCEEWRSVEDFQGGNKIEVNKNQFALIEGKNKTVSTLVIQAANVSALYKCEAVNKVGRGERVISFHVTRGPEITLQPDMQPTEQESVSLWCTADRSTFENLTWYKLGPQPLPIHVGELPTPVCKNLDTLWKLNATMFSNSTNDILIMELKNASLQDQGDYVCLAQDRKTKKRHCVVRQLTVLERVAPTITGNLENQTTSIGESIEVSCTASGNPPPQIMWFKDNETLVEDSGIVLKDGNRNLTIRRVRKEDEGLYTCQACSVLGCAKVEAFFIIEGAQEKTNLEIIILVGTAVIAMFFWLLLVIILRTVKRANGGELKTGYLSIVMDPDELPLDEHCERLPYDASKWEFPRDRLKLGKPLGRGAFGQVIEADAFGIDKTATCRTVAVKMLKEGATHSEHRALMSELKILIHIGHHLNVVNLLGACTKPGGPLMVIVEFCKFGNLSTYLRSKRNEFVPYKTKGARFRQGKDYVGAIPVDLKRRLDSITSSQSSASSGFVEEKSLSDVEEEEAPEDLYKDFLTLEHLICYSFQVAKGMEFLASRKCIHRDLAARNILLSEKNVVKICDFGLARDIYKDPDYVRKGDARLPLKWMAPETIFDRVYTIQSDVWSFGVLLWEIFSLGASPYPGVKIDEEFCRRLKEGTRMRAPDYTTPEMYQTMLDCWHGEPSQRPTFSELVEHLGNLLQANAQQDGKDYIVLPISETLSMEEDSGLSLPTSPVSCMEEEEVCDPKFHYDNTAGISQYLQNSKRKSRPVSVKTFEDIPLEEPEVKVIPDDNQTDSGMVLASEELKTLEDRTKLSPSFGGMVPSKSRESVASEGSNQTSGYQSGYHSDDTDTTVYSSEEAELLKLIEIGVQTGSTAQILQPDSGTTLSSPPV
T2 sequence (P10721 552-948): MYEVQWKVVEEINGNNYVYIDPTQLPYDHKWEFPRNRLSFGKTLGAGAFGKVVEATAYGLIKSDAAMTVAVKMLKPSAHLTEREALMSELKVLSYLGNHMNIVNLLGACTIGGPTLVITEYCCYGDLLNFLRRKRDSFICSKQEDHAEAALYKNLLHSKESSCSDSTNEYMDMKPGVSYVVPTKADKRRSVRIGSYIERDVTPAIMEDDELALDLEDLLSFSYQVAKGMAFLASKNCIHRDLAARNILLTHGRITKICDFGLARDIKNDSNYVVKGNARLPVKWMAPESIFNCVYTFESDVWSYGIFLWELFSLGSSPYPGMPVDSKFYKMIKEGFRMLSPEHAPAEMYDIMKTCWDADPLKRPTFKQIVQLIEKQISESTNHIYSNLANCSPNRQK

Row | SMILES | pIC50 [1] | pIC50 [2] | pIC50 [3] | pIC50 [4] | pIC50 [5] | pIC50 [6] | pIC50 [7] | pIC50 [8] | pIC50 [9] | pIC50 [10] | pIC50 [11] | pIC50 [12] | pIC50 [13] | pIC50 [14]
1 | CCOc1c(OCc2ccc(N(CC)CC)nc2)cccc1C(=O)c1c[nH]c2ncccc12 [P-2143, [3-(6-Diethylamino-pyridin-3-ylmethoxy)-2-ethoxy-phenyl]-(1H-pyrrolo[2,3-b]pyridin-3-yl)-methanone] | ≥ 5.00 | ≥ 5.00 | ≥ 5.00 | – | – | – | – | – | – | – | – | – | – | –
2 | COCCOc1ccc(F)c(C(=O)c2c[nH]c3ncc(Br)cc23)c1F [P-1453, (5-Bromo-1H-pyrrolo[2,3-b]pyridin-3-yl)-[2,6-difluoro-3-(2-methoxy-ethoxy)-phenyl]-methanone] | – | ≥ 5.00 | ≥ 5.00 | ≥ 5.00 | ≥ 5.00 | ≥ 5.00 | ≥ 5.00 | ≥ 5.00 | – | – | – | – | – | –
3 | Cn1cc(-c2cnc3[nH]cc(C(=O)c4c(F)ccc(OCC(F)(F)F)c4Cl)c3c2)cn1 [P-2145, [2-Chloro-6-fluoro-3-(2,2,2-trifluoro-ethoxy)-phenyl]-[5-(1-methyl-1H-pyrazol-4-yl)-1H-pyrrolo[2,3-b]pyridin-3-yl]-methanone] | ≥ 5.00 | ≥ 5.00 | – | ≥ 5.00 | – | – | ≥ 5.00 | – | ≥ 5.00 | ≥ 5.00 | ≥ 5.00 | ≥ 5.00 | – | –
4 | CCOc1c(OCc2ccc(N3CCCC3)nc2)cccc1C(=O)c1c[nH]c2ncccc12 [P-2144, [2-Ethoxy-3-(6-pyrrolidin-1-yl-pyridin-3-ylmethoxy)-phenyl]-(1H-pyrrolo[2,3-b]pyridin-3-yl)-methanone] | ≥ 5.00 | ≥ 5.00 | – | ≥ 5.00 | – | – | – | – | – | – | – | – | – | –
5 | Cn1cc(-c2cnc3[nH]cc(Cc4cc(F)c(OCc5nc6ccccc6[nH]5)cc4F)c3c2)cn1 [P-2108, 2-{2,5-Difluoro-4-[5-(1-methyl-1H-pyrazol-4-yl)-1H-pyrrolo[2,3-b]pyridin-3-ylmethyl]-phenoxymethyl}-1H-benzoimidazole] | – | ≥ 5.00 | – | – | – | – | ≥ 5.00 | – | ≥ 5.00 | ≥ 5.00 | ≥ 5.00 | ≥ 5.00 | – | –
6 | Fc1cc(OCc2nc3ccccc3[nH]2)c(F)cc1Cc1c[nH]c2ncc(Br)cc12 [P-2107, 2-[4-(5-Bromo-1H-pyrrolo[2,3-b]pyridin-3-ylmethyl)-2,5-difluoro-phenoxymethyl]-1H-benzoimidazole] | – | ≥ 5.00 | ≥ 5.00 | – | – | – | ≥ 5.00 | – | – | ≥ 5.00 | ≥ 5.00 | ≥ 5.00 | ≥ 5.00 | –
7 | COc1cc(Cc2c[nH]c3ncccc23)ccc1OCc1ccc(Cl)cc1 [P-1247, 3-(4-(4-chlorobenzyloxy)-3-methoxybenzyl)-1H-pyrrolo[2,3-b]pyridine] | – | ≥ 5.00 | ≥ 5.00 | ≥ 5.00 | ≥ 5.00 | ≥ 5.00 | ≥ 5.00 | – | ≥ 5.00 | – | ≥ 5.00 | – | – | –
8 | Cc1nc(C)c(COc2ccc(F)c(C(=O)c3c[nH]c4ncc(Cl)cc34)c2F)s1 [P-2162, (5-Chloro-1H-pyrrolo[2,3-b]pyridin-3-yl)-[3-(2,4-dimethyl-thiazol-5-ylmethoxy)-2,6-difluoro-phenyl]-methanone] | ≥ 5.00 | ≥ 5.00 | – | – | – | – | ≥ 5.00 | – | – | – | – | ≥ 5.00 | – | –
9 | COCCOCCOc1cc(Cl)c(Cc2c[nH]c3ncc(Cl)cc23)cc1F [P-2155, 5-chloro-3-2-chloro-5-fluoro-4-[2-(2-methoxy-ethoxy)-ethoxy]-benzyl-1H-pyrrolo[2,3-b]pyridine] | – | ≥ 5.00 | ≥ 5.00 | – | – | – | – | ≥ 5.00 | – | – | – | ≥ 5.00 | – | –
10 | COc1cc(OCc2ccc(Cl)cc2)ccc1Cc1c[nH]c2ncccc12 [P-1450, 3-[4-(4-chloro-benzyloxy)-2-methoxy-benzyl]-1H-pyrrolo[2,3-b]pyridine] | – | ≥ 5.00 | – | – | ≥ 5.00 | ≥ 5.00 | ≥ 5.00 | – | – | – | – | – | – | –

Results, then the compound that gave them:

Row | pIC50 [1] | pIC50 [2] | pIC50 [3] | pIC50 [4] | pIC50 [5] | pIC50 [6] | pIC50 [7] | pIC50 [8] | pIC50 [9] | pIC50 [10] | pIC50 [11] | pIC50 [12] | pIC50 [13] | pIC50 [14] | SMILES
11 | – | ≥ 5.00 | – | – | – | – | ≥ 5.00 | – | ≥ 5.00 | ≥ 5.00 | ≥ 5.00 | ≥ 5.00 | ≥ 5.00 | – | Cn1cc(-c2cnc3[nH]cc(Cc4cc(F)c(OCc5nc6ccccc6[nH]5)cc4Cl)c3c2)cn1 [P-2109, 2-{5-Chloro-2-fluoro-4-[5-(1-methyl-1H-pyrazol-4-yl)-1H-pyrrolo[2,3-b]pyridin-3-ylmethyl]-phenoxymethyl}-1H-benzoimidazole]
12 | ≥ 5.00 | ≥ 5.00 | – | ≥ 5.00 | – | ≥ 5.00 | ≥ 5.00 | – | – | – | ≥ 5.00 | ≥ 5.00 | – | – | Cc1nc(COc2ccc(F)c(C(=O)c3c[nH]c4ncc(Cl)cc34)c2F)c(C)o1 [P-2164, (5-Chloro-1H-pyrrolo[2,3-b]pyridin-3-yl)-[3-(2,5-dimethyl-oxazol-4-ylmethoxy)-2,6-difluoro-phenyl]-methanone]
13 | – | ≥ 5.00 | – | – | – | – | – | – | – | – | – | ≥ 5.00 | – | ≥ 5.00 | COc1cc(Cc2c[nH]c3ncccc23)c(Cl)cc1OCc1ccc(Cl)cc1F [P-2166, 3-[2-chloro-4-(4-chloro-2-fluoro-benzyloxy)-5-methoxy-benzyl]-1H-pyrrolo[2,3-b]pyridine]
14 | – | ≥ 5.00 | – | – | – | – | ≥ 5.00 | – | ≥ 5.00 | ≥ 5.00 | ≥ 5.00 | ≥ 5.00 | – | – | Cn1cc(-c2cnc3[nH]cc(Cc4cc(Cl)c(OCc5nc6ccccc6[nH]5)cc4F)c3c2)cn1 [P-2117, 2-{2-Chloro-5-fluoro-4-[5-(1-methyl-1H-pyrazol-4-yl)-1H-pyrrolo[2,3-b]pyridin-3-ylmethyl]-phenoxymethyl}-1H-benzoimidazole]
15 | – | ≥ 5.00 | ≥ 5.00 | ≥ 5.00 | ≥ 5.00 | ≥ 5.00 | ≥ 5.00 | ≥ 5.00 | – | – | – | – | – | – | Fc1ccc(OCc2ccccc2)c(F)c1Cc1c[nH]c2ncc(-c3cccnc3)cc12 [P-1455, 3-(3-Benzyloxy-2,6-difluoro-benzyl)-5-pyridin-3-yl-1H-pyrrolo[2,3-b]pyridine]
16 | – | ≥ 5.00 | – | – | – | – | – | – | – | – | – | ≥ 5.00 | – | ≥ 5.00 | Cn1cc(-c2cnc3[nH]cc(Cc4c(Cl)ccc(OCC(F)(F)F)c4Cl)c3c2)cn1 [P-2152, 3-[2,6-Dichloro-3-(2,2,2-trifluoro-ethoxy)-benzyl]-5-(1-methyl-1H-pyrazol-4-yl)-1H-pyrrolo[2,3-b]pyridine]
17 | – | ≥ 5.00 | ≥ 5.00 | ≥ 5.00 | – | ≥ 5.00 | ≥ 5.00 | – | – | ≥ 5.00 | ≥ 5.00 | ≥ 5.00 | ≥ 5.00 | – | N#Cc1cnc2[nH]cc(Cc3cc(F)c(OCc4nc5ccccc5[nH]4)cc3F)c2c1 [P-2185, 3-[4-(1H-Benzoimidazol-2-ylmethoxy)-2,5-difluoro-benzyl]-1H-pyrrolo[2,3-b]pyridine-5-carbonitrile]
18 | – | ≥ 5.00 | – | – | ≥ 5.00 | – | – | – | – | ≥ 5.00 | – | – | ≥ 5.00 | – | COc1cc(Cc2c[nH]c3ncc(Br)cc23)c(F)cc1OCc1nc2ccccc2[nH]1 [P-2181, 2-[4-(5-Bromo-1H-pyrrolo[2,3-b]pyridin-3-ylmethyl)-5-fluoro-2-methoxy-phenoxymethyl]-1H-benzoimidazole]
19 | ≥ 5.00 | ≥ 5.00 | – | – | – | – | ≥ 5.00 | – | – | – | ≥ 5.00 | ≥ 5.00 | – | – | Cn1cc(-c2cnc3[nH]cc(Cc4cc(F)c(O)cc4F)c3c2)cn1 [P-2161, 2,5-difluoro-4-[5-(1-methyl-1H-pyrazol-4-yl)-1H-pyrrolo[2,3-b]pyridin-3-ylmethyl]-phenol]
20 | – | ≥ 5.00 | – | – | ≥ 5.00 | ≥ 5.00 | ≥ 5.00 | – | – | – | – | – | – | – | Clc1ccc(COc2ccc(Cc3c[nH]c4ncccc34)cc2Cl)cc1 [P-1449, 3-[3-chloro-4-(4-chloro-benzyloxy)-benzyl]-1H-pyrrolo[2,3-b]pyridine]
21 | – | ≥ 5.00 | ≥ 5.00 | ≥ 5.00 | – | ≥ 5.00 | ≥ 5.00 | ≥ 5.00 | – | – | – | – | – | – | COCCOc1ccc(F)c(Cc2c[nH]c3ncc(Br)cc23)c1F [P-1454, 5-Bromo-3-[2,6-difluoro-3-(2-methoxy-ethoxy)-benzyl]1H-pyrrolo[2,3-b]pyridine]

Source: US7872018B2, “Compounds and methods for kinase modulation, and indications therefor” (Plexxikon, Inc., priority 2006, dated 2011)
